Experimental data taken from patent US20240294522A1 (Lead Discovery Center GmbH, priority 2021, published 2024).

Experiments:
GRK5 = molecular target: T1, GRK5 (Homo sapiens, UniProt P34947); test: Lance Kinase Activity Assay, GRK5; details: biochemical Lance kinase activity assay; class symbols A-F; read-out: GRK5 LANCE Assay (IC-50)
T1 construct: purchased Thermo Scientific
Procedure: (§1) This protocol describes how the Lance Kinase Activity Assay was performed to determine IC50 values of compounds of general formula (I) against GRK5 and GRK2.
(§2) The principle behind this enzymatic assay is based upon the phosphorylation of the Ulight-peptide substrate. It is detected by using a specific EU-labeled anti-phospho peptide antibody. The binding of the Eu labeled anti-phospho peptide antibody to the phosphorylated ULight labeled peptide gives rise to a FRET-signal. Binding of an inhibitor to the kinase prevents phosphorylation of the Ulight-substrate, resulting in a loss of FRET. In tables 2 and 3 the relevant information for these two LANCE assays is summarized.
(§3) For every sample, 2 μl of assay buffer (50 mM HEPES pH 7,5, 10 mM MgCL2, 1 mM EGTA 0,01% Tween 20, 1% DMSO, 2 mM DTT) were transferred into a suitable assay plate (e.g. Corning #3673). Compounds were added in a concentration range from 10 μM to 0.0025 μM using an acoustic dispenser (Echo520 from Labcycte, San Jose, USA) equipped with Echo Dose Response software. After that 6 μl of kinase-substrate mix was added. Reaction was started by addition of 2 μl ATP working solution and mixed using a Bioshake 5000 microplate shaker (Q Instruments, Jena, Germany).
(§4) After 1 h incubation at room temperature the reaction was stopped with 10 μl detection mix containing the Eu-labeled phosphospecific antibody and 10 mM EDTA. After a second incubation period of 1 h at room temperature the FRET signal was measured at 340 nm excitation, 665 nm and 615 nm emission (for the ULight-substrate and Eu-AB, respectively) with an Envision microplate reader (Perkin Elmer, Waltham, MA, USA) with 50 μs delay and 300 μs integration time. IC50 values were determined from the sigmoidal dose response curves with the software Quattro Workflow (Quattro GmbH, Munich, Germany).
(§5) Inhibition is indicated as IC50 [nM] (“−”=not measured). Compounds having an activity designated as “A” provided an IC50≤50 nM; compounds having an activity designated as “B” provided an 50 nM<IC50≤100 nM; compounds having an activity designated as “C” provided an 100 nM<IC50≤500 nM; compounds having an activity designated as “D” provided an 500 nM<IC50≤1000 nM; compounds having an activity designated as “E” provided an 1000 nM<IC50≤10000 nM; and compounds having an activity designated as “F” provided an IC50>10000 nM.

GRK2 = molecular target: T2, GRK2 (Homo sapiens, UniProt P25098); test: Lance Kinase Activity Assay, GRK2; details: biochemical Lance kinase activity assay; class symbols A-F; read-out: GRK2 LANCE Assay (IC-50)
T2 construct: purchased Thermo Scientific
T2 sequence (P25098 1-689): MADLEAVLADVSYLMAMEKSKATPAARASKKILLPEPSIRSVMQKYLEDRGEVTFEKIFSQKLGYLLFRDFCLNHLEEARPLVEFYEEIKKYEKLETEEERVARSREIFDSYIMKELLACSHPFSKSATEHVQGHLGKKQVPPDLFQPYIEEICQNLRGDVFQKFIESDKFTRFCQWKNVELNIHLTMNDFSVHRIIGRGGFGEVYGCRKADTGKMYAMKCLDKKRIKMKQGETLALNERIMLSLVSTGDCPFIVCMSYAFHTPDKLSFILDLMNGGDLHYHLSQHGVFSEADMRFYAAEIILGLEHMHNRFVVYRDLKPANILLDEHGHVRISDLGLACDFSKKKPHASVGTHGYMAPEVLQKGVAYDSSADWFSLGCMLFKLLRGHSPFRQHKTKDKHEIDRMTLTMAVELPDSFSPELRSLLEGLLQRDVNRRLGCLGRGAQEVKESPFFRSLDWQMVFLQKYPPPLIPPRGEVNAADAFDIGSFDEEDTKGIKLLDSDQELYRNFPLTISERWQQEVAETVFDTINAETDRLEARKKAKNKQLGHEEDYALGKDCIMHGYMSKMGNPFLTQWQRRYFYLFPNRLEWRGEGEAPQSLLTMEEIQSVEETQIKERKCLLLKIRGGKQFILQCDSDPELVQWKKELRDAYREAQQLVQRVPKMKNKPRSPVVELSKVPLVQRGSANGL
Procedure: as §1, §2, §3, §4, §5

T1 sequence (P34947 whole entry): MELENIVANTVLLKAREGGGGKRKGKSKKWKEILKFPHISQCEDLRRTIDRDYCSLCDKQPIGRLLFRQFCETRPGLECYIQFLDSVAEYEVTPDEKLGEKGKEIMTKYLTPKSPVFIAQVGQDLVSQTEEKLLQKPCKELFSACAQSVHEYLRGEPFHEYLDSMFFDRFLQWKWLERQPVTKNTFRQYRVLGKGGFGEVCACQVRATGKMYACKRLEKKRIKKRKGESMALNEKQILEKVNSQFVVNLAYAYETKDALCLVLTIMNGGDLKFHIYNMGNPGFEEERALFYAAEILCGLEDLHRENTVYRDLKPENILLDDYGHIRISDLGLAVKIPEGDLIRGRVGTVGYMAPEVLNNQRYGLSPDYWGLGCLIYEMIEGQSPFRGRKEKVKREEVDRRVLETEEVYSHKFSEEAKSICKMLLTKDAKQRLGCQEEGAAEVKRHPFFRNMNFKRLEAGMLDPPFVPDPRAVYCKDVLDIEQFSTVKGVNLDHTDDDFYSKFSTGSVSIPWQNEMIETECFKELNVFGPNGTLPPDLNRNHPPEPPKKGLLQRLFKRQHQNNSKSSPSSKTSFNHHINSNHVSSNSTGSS

Row | IC50 (GRK5) [nM] | IC50 (GRK2) [nM] | Compound
1 | 50 to 100 | 1000 to 10000 | COc1ccc([C@@H](C)NC(=O)/C=C/c2c[nH]c3nccc(-c4ccc(C5CCN(C)CC5)cc4)c23)cc1OC [Example 240, (R,E)-N-(1-(3,4-dimethoxyphenyl)ethyl)-3-(4-(4-(1-methylpiperidin-4-yl)phenyl)-1H-pyrrolo[2,3-b]pyridin-3-yl)acrylamide]
2 | 1000 to 10000 | > 10000 | COc1ccc([C@@H](C)NC(=O)/C=C/c2c[nH]c3nccc(-c4ccc(F)cc4OC)c23)cc1OC [Example 229, (R,E)-N-(1-(3,4-dimethoxyphenyl)ethyl)-3-(4-(4-fluoro-2-methoxyphenyl)-1H-pyrrolo[2,3-b]pyridin-3-yl)acrylamide]
3 | ≤ 50 | > 10000 | COc1ccc([C@@H](C)NC(=O)/C(C#N)=C/c2c[nH]c3ncc(C4=CCCC4)cc23)cc1OC [Example 158, (R,E)-2-cyano-3-(5-(cyclopent-1-en-1-yl)-1H-pyrrolo[2,3-b]pyridin-3-yl)-N-(1-(3,4-dimethoxyphenyl)ethyl)acrylamide]
4 | 500 to 1000 | 500 to 1000 | N#C/C(=C\c1c[nH]c2ncccc12)C(=O)NCc1cc(F)cc(F)c1 [Example 67, (E)-2-cyano-N-(3,5-difluorobenzyl)-3-(1H-pyrrolo[2,3-b]pyridin-3-yl)acrylamide]
5 | 50 to 100 | 1000 to 10000 | COc1ccc([C@@H](C)NC(=O)/C(C#N)=C/c2c[nH]c3ncc(-c4cncnc4)cc23)cc1OC [Example 120, (R,E)-2-cyano-N-(1-(3,4-dimethoxyphenyl)ethyl)-3-(5-(pyrimidin-5-yl)-1H-pyrrolo[2,3-b]pyridin-3-yl)acrylamide]
6 | 1000 to 10000 | > 10000 | COc1ccc([C@@H](C)NC(=O)/C(C#N)=C/c2c[nH]c3ncc(-c4ccccc4CN4CCCCC4)cc23)cc1OC [Example 129, (R,E)-2-cyano-N-(1-(3,4-dimethoxyphenyl)ethyl)-3-(5-(2-(piperidin-1-ylmethyl)phenyl)-1H-pyrrolo[2,3-b]pyridin-3-yl)acrylamide]
7 | ≤ 50 | 1000 to 10000 | COc1ccc([C@@H](C)NC(=O)/C=C/c2c[nH]c3ncc(-c4cccc(CCN(C)C)c4)cc23)cc1OC [Example 192]
8 | ≤ 50 | 500 to 1000 | COc1ccc([C@@H](C)NC(=O)/C(C#N)=C/c2c[nH]c3ncc(O[C@@H]4CCOC4)cc23)cc1OC [Example 107, (E)-2-cyano-N-((R)-1-(3,4-dimethoxyphenyl)ethyl)-3-(5-(((R)-tetrahydrofuran-3-yl)oxy)-1H-pyrrolo[2,3-b]pyridin-3-yl)acrylamide]
9 | ≤ 50 | 1000 to 10000 | COc1ccc([C@@H](C)NC(=O)/C=C/c2c[nH]c3ncc(-c4ccc(CN5CCOCC5)cc4)cc23)cc1OC [Example 194]
10 | ≤ 50 | ≤ 50 | COc1cccc([C@@H](C)NC(=O)/C(C#N)=C/c2c[nH]c3ncccc23)c1 [Example 33, (R,E)-2-cyano-N-(1-(3-methoxyphenyl)ethyl)-3-(1H-pyrrolo[2,3-b]pyridin-3-yl)acrylamide]
11 | 1000 to 10000 | > 10000 | COc1ccc([C@@H](C)NC(=O)/C(C#N)=C/c2c[nH]c3ncc(-c4ccc(C(F)(F)F)cc4)cc23)cc1OC [Example 119]
12 | 100 to 500 | 100 to 500 | N#C/C(=C\c1c[nH]c2ncccc12)C(=O)NCc1cccc(Cl)c1 [Example 60, (E)-N-(3-chlorobenzyl)-2-cyano-3-(1H-pyrrolo[2,3-b]pyridin-3-yl)acrylamide]
13 | ≤ 50 | 1000 to 10000 | COc1ccc([C@@H](C)NC(=O)/C=C/c2c[nH]c3ncc(-c4cccc(S(=O)(=O)C5CC5)c4)cc23)cc1OC [Example 216, (R,E)-3-(5-(3-(cyclopropylsulfonyl)phenyl)-1H-pyrrolo[2,3-b]pyridin-3-yl)-N-(1-(3,4-dimethoxyphenyl)ethyl)acrylamide]
14 | 100 to 500 | 1000 to 10000 | CNS(=O)(=O)c1ccccc1CNC(=O)/C(C#N)=C/c1c[nH]c2ncccc12 [Example 43, (E)-2-cyano-N-(2-(N-methylsulfamoyl)benzyl)-3-(1H-pyrrolo[2,3-b]pyridin-3-yl)acrylamide]
15 | ≤ 50 | 1000 to 10000 | COc1ccc([C@@H](C)NC(=O)/C(C#N)=C/c2c[nH]c3nccc(-c4cccc(CN(C)C)c4)c23)cc1OC [Example 176, (R,E)-2-cyano-N-(1-(3,4-dimethoxyphenyl)ethyl)-3-(4-(3-((dimethylamino)methyl)phenyl)-1H-pyrrolo[2,3-b]pyridin-3-yl)acrylamide]
16 | ≤ 50 | 1000 to 10000 | COc1ccc([C@@H](C)NC(=O)/C=C/c2c[nH]c3ncc(-c4cc(F)cc(S(C)(=O)=O)c4)cc23)cc1OC [Example 249, (R,E)-N-(1-(3,4-dimethoxyphenyl)ethyl)-3-(5-(3-fluoro-5-(methylsulfonyl)phenyl)-1H-pyrrolo[2,3-b]pyridin-3-yl)acrylamide]
17 | 50 to 100 | > 10000 | COc1ccc([C@@H](C)NC(=O)/C(C#N)=C/c2c[nH]c3ncc(-c4ccccc4)cc23)cc1OC [Example 116]
18 | ≤ 50 | 1000 to 10000 | COc1ccc([C@@H](C)NC(=O)/C(C#N)=C/c2c[nH]c3ncc(-c4cccc(S(=O)(=O)N(C)C)c4)cc23)cc1OC [Example 149]
19 | ≤ 50 | 1000 to 10000 | COc1ccc([C@@H](C)NC(=O)/C(C#N)=C/c2c[nH]c3ncc(N4CCOCC4)cc23)cc1OC [Example 84, (R,E)-2-cyano-N-(1-(3,4-dimethoxyphenyl)ethyl)-3-(5-morpholino-1H-pyrrolo[2,3-b]pyridin-3-yl)acrylamide]
20 | ≤ 50 | > 10000 | COc1ccc(-c2cnc3[nH]cc(/C=C(\C#N)C(=O)N[C@H](C)c4ccc(OC)c(OC)c4)c3c2)cc1OC [Example 145]
21 | ≤ 50 | 1000 to 10000 | COc1ccc([C@@H](C)NC(=O)/C(C#N)=C/c2c[nH]c3nccc(-c4ccc(C5CCN(C)CC5)cc4)c23)cc1OC [Example 170]
22 | 100 to 500 | > 10000 | COc1ccc([C@@H](C)NC(=O)/C=C/c2c[nH]c3nccc(-c4cccc(CN(C)C)c4)c23)cc1OC [Example 224, (R,E)-N-(1-(3,4-dimethoxyphenyl)ethyl)-3-(4-(3-((dimethylamino)methyl)phenyl)-1H-pyrrolo[2,3-b]pyridin-3-yl)acrylamide]
23 | 1000 to 10000 | 1000 to 10000 | N#C/C(=C\c1c[nH]c2ncccc12)C(=O)NCc1cccc(CS(N)(=O)=O)c1 [Example 27, (E)-2-cyano-3-(1H-pyrrolo[2,3-b]pyridin-3-yl)-N-(3-(sulfamoylmethyl)benzyl)-acrylamide]
24 | 100 to 500 | > 10000 | COc1ccc([C@@H](C)NC(=O)/C(C#N)=C/c2c[nH]c3ncc(C(=O)N4CCN(C)CC4)cc23)cc1OC [Example 83, (R,E)-2-cyano-N-(1-(3,4-dimethoxyphenyl)ethyl)-3-(5-(4-methylpiperazine-1-carbonyl)-1H-pyrrolo[2,3-b]pyridin-3-yl)acrylamide]
25 | 100 to 500 | 1000 to 10000 | N#C/C(=C\c1c[nH]c2ncccc12)C(=O)NCc1ccc(Cl)cc1 [Example 58, (E)-N-(4-chlorobenzyl)-2-cyano-3-(1H-pyrrolo[2,3-b]pyridin-3-yl)acrylamide]
